In publication PMC12498190, “A Photocaged N‐Phosphonopiperidinone as a Selective Photo‐Cleavable DPP8/9 Inhibitor” (Chembiochem, 2025):

Target: T1, PREP (Homo sapiens, UniProt P48147)
T1 construct: endogenous in cells; host or cells: HEK293 (Cytion, Germany, 300192)
T1 sequence (P48147 1-710): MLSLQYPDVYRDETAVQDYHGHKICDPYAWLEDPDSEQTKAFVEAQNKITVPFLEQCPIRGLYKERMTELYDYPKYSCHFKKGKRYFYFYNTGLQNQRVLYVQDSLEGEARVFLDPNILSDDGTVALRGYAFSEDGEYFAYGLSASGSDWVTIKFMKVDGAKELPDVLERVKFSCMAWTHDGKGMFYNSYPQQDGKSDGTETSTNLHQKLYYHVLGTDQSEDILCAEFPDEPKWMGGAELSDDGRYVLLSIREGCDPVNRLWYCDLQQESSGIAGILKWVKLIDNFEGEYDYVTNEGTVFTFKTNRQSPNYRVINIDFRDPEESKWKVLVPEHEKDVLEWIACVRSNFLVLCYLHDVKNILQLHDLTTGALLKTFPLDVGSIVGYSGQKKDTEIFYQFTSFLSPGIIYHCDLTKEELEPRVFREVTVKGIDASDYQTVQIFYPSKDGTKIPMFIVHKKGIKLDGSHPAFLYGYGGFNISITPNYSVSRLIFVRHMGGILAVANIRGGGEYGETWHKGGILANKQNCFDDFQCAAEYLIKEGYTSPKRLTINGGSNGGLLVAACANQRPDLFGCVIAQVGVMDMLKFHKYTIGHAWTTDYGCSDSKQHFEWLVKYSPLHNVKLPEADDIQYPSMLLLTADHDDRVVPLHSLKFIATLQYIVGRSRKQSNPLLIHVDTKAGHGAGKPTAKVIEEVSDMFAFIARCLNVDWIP
Experiment: In situ competitive ABPP in HEK293 cell culture, 70 kDa band
Type: cell-based
Conditions: pre-incubation 1 h with 20 µM or 10 µM (method), 10 µM 2 for 1 h, light 5 min
Protocol: Figure 2 Competitive ABPP with photo‐cleavable inhibitor 5 in HEK293 cells. A) Schematic overview of a competitive ABPP experiment. A proteome is pre‐incubated with a competitor, followed by a labeling reaction with an activity‐based probe (ABP). In the case of a photocaged inhibitor, the active compound can be released via irradiation. Target proteins of the competitor cannot be bound by the ABP, resulting in an absence of the respective protein band in‐gel analysis. Created in BioRender. Najdzion, M. (2025) https://BioRender.com/84zn8cb B) Gel‐based competitive ABPP experiment in HEK293 cell lysates with the broadband serine hydrolase ABP ≡FP or the DPP8/9‐directed ABP 2 and the photocaged inhibitor 5, at the indicated concentrations, after or without prior irradiation with green light for 5 min. The corresponding pre‐incubation time for 5 was 30 min. C) Corresponding in situ competitive ABPP experiment in HEK293 cell culture, again with 10 µM 2 for 1 h. […] HEK293 cells were irradiated with a green LED lamp in the presence of 0.5% DMSO for 5 min (‘light’), and cell viability was measured after 24 h. […] For both compounds, cell viability was measured under ‘dark’ (not irradiated) and ‘light’ (irradiated for 5 min with a green LED lamp after the addition of the inhibitor) conditions. […]

## CCCCCc1ccc(SCCP(=O)(OCC)N2CCC[C@H](NC(=O)OCC3=C4C(C)=CC(C)=[N+]4[B-](C)(C)n4c(C)cc(C)c43)C2=O)cc1 (stereo partly shown) [Compound 5]
  Competition of PREP labeling in live cells (in words): partially competed
